From patent US20210393807A1, “PHOTOACOUSTIC VOLTAGE-SENSITIVE DYES FOR IN VIVO IMAGING” (The Johns Hopkins University, priority 2016, published 2021)
Values joined by “and” are separate entries in the source; they are usually repeats but may differ in a detail not shown here. Identical values can stand only once. “Also recorded” adds a separate entry of the source.

Assays:
rat brain motor cortex = experiment: Transcranial PA imaging of chemoconvulsant (PTZ) seizure neural activity; type: in vivo, Sprague Dawley rats; details: for neural activity index (fractional change vs baseline): baseline 1.00±0.20
Description: (§1) 2.5.1 Photoacoustic imaging setup. For the recording of electrophysiological brain activities in vivo, an ultrasound research system was utilized that consisted of ultrasound array transducer (L 14-5/38) connected to a real-time data acquisition system (SonixDAQ, Ultrasonix Medical Corp., Canada). To induce the PA signals, pulsed laser light was generated by a second-harmonic (532 nm) Nd:YAG laser pumping an optical parametric oscillator (OPO) system (Phocus Inline, Opotek Inc., USA). The tunable range of the laser system was 690-900 nm and the maximum pulse repetition frequency was 20 Hz. The laser pulse was delivered into the probe through bifurcated fiber optic bundles, each 40 mm long and 0.88 mm wide. The PA probe was located at around the Interaural 11.2 mm and Bregma 2.2 mm to obtain the cross-section of motor cortexes (FIG. 15). The energy density at skin surface was only 3.5 mJ/cm^2, which is far below the ANSI safety limit restricting the 5-ns pulsed laser exposure at 700-1400 nm of wavelength range to be lower than 20 mJ/cm^2. 2.5.2 Lipid vesicle phantom preparation for VSD validation. The lipid vesicle model was prepared using the same procedure as in Zhang et al (Zhang, et al., 2017); 25-mg soybean phosphatidyl-choline (type II) suspended in 1 mL of K^+ buffer was used as the lipid vesicles. This vesicle contains 100 mM K2SO4 and 20 mM HEPES. The suspension was vortexed for 10 min, and followed by 60 min of sonication within bath-type sonicator to yield a translucent vesicle suspension. A Na^+ buffer was also prepared, which contains 100 mM Na2SO4 and 20 mM HEPES. Afterwards, approximately a 100:1 K^+ gradient across vesicle membrane was established with 10 μL of lipid vesicle suspension added to 1 mL of Na^+ buffer. In the vesicle phantom prepared, negative membrane potential (polarized state) was mimicked by adding 2.5 μL of 10 μM valinomycin—a K^+ specific ionophore, thereby K^+ ions were transported from inside to outside of vesicle membranes.
2.5.4 Animal preparation. For the proposed in vivo experiments. […]

rat motor cortex [1] = experiment: VSD toxicity study, EEG during direct cortical application via cranial window; type: in vivo
Method: 2.5.10 Validation of protocol for using sub-dermal EEG electrodes to determine toxic CNS effects of VSDs. VSDs effect on EEG signal from sub-dermal scalp electrodes was investigated in a pilot by direct cortical applications of increasing concentrations of VSDs in anesthetized rat with limited craniotomies while recording synchronous vEEGs (FIG. 21).
Increasing concentrations of VSD were tested in the same rat at temporally spaced time-points. Rats were anesthetized with IP injection to ketamine/xylazine and a cranial window made over the right motor cortex. After recording a baseline EEG in the rat for 10-min duration with the craniotomy, the follow-on EEG recording continued to record EEG following application of increasing concentrations of vehicle alone and VSD+ vehicle for the same duration of EEG recordings (i.e., 10 min) allowing comparisons of EEG responses to each increasing gradient of VSD on cortical activity as compared to baseline EEG signature in the same rat.

rat motor cortex [2] = experiment: EEG validation of seizure activity in the in vivo protocol; details: IV VSD treatment; anesthetized rats
Method: 2.5.9 EEG validation of neural seizure activity. To obtain the EEG records of electrical spike discharges that originated from motor cortex shown in FIG. 14, sub-dermal scalp EEG recording electrodes were located at the corresponding locations on motor cortex indicated by Xs in FIG. 21A, the schematic of the rat cranium (three electrodes, 1 recording and 1 reference over motor cortex, 1 ground electrode over rostrum). The EEG signal at motor cortex was recorded with the identical preparation procedures in PA imaging including animal preparation, administration of IR780, Lexiscan, and PTZ, time duration for recording, and interval between sequences in the protocol. Data acquisition was done using Sirenia software (Pinnacle Technologies Inc., Kansas, USA) with synchronous video capture. […] The files were stored in .EDF format and scored manually for protocol stages using real time annotations added to the recording during the experiments.

[3] = Spectrophotometric measurements of near-infrared VSD in lipid vesicle phantom; type: physicochemical
Description: as §1, with “Afterwards, approximately a 100:1 K^+ gradient across vesicle membrane was established with 10 μL of lipid vesicle suspension added to 1 mL of Na^+ buffer. In the vesicle phantom prepared, negative membrane potential (polarized state) was mimicked by adding 2.5 μL of 10 μM valinomycin—a K^+ specific ionophore, thereby K^+ ions were transported from inside to outside of vesicle membranes.” left out
Otherwise, 2.5 μL of 1 mM gramicidin, a nonspecific monovalent cation ionophore, enables Na+ cations to move from outside to inside of vesicle membranes to short circuit the membrane potential (depolarized state). From these controls, our near-infrared VSD positively charged can move in and out through the vesicle membrane, leading to the change in fluorescence quenching depending on their aggregation status.

[4] = Photoacoustic measurement and quantum yield estimation of near-infrared VSD in lipid vesicle phantom; type: physicochemical; details: for PA intensity decrease in depolarization state compared to polarized state (pure VSD contrast): 790 nm
Description: as §1
Otherwise, 2.5 μL of 1 mM gramicidin, a nonspecific monovalent cation ionophore, enables Na+ cations to move from outside to inside of vesicle membranes to short circuit the membrane potential (depolarized state).
2.5.3 Estimation of quantum yield change of VSD. The quantum yields of the near-infrared VSD in depolarized states […] were estimated based on the Eq. 8 and 9 disclosed previously. […] The quantum yield in the polarized state (ΦF) were also estimated by compensating for the absorbance and fluorescence emission changes when depolarized: ΦF=(CF/Cabs)Φ′F.

[5] = tested on: blood-brain barrier (BBB); experiment: PA intensity monitoring of VSD penetration through BBB with regadenoson; type: in vivo, rat; details: brain tissue region; intravenous; last 2 min (8-10 min), 480 time points
Method: (Carman, et al., 2011) For preliminary studies, the dosage and IV administration method indicated by the manufacturer was utilized. A volume of 150 μl of the standard concentration of 0.08 mg/1 ml was given to each animal regardless of the weight, followed by 150 μl flush of 0.9% sodium chloride for injection. VSD penetration was expected during the Lexiscan's biological half-life, i.e., 2-4 minutes, thereby the experimental protocol was designed based on the pharmacological assumption. In vivo experimental protocol. The in vivo protocols were respectively designed for three experimental groups: negative control, control, and seizure groups. […] Note that each data acquisition was performed for 10 min to cover the biological half-life of Lexiscan (2-3 min). Each dosing protocol of Lexiscan and VSD was as follows: through the jugular vein catheter port located in the neck, 150 μl of Lexiscan 0.4 mg/5 ml concentration was injected, and 300 μl of VSD was subsequently administrated at 0.1 mg/ml concentration, followed by 150 μl of saline solution flush. […] The negative control group was designed to validate the incapability of Lexiscan and PTZ to generate any bias on PA neural activity detection by excluding VSD administration. […]

[6] = in vivo; cited from earlier work
[7] = Photoacoustic characterization of PA-VSD in lipid vesicle phantom; type: physicochemical; details: 800 nm; for fractional PA intensity change upon polarization: 20 samples
Method: (§2) Lipid vesicles were prepared from 25-mg soybean phosphatidylcholine (type II) suspended in 1 mL of K^+ buffer, which contains 100 mM K2SO4 and 20 mM HEPES. This suspension was vortexed for 10 min and sonicated in bath-type sonicator for 60 min, yielding a translucent vesicle suspension. A Na^+ buffer containing 100 mM Na2SO4 and 20 mM HEPES was prepared. During experiments, 10 μL of vesicle suspension was added to 1 mL of Na^+ buffer, resulting in an approximately 100:1 K^+ gradient across vesicle membrane. VSD was added to this suspension. When 2.5 μL of 10 μM valinomycin—a K^+ specific ionophore—was added, K^+ ions were transported from inside to outside of vesicle membranes, resulting in a negative membrane potential. This negative potential drives the positively charged VSDs into the vesicles, which causes aggregation of dyes and quenching of fluorescence. Subsequent addition of 2.5 μL of 1 mM gramicidin, a nonspecific monovalent cation ionophore, allows Na^+ cations to move from outside to inside of vesicle membranes to short circuit the membrane potential.
The PA sensing system was employed for the characterization of the synthesized PA-VSD (FIG. 3); Q-switched Nd:YAG laser integrated with an optical parametric oscillator (Phocus Inline and MagicPrism, Opotek Inc.) was used for PA signal generation. With the tunability of the laser system, the spectral responses for near-infrared wavelengths (i.e., 700 to 850 nm at 10-nm interval) were scanned with 20-Hz pulsed repetition frequency and […]. The light was delivered through an optical fiber bundle with a 9-mm round shaped output, which was aligned with an ultrasound receiver. The PAVSD in the lipid vesicles suspension was loaded into transparent tubes with 1.27-mm diameter (AAQ04133, Tygon®, SaintGobain Corp.), which were located at around 30 mm depth in the water tank. Note that the temperature of the water was consistently maintained at 22° C. during the experiments. A 10-MHz linear ultrasound probe (L 14-5/38, Ultrasonix Corp.) was used for PA-VSD sensing in a practical circumstance with a limited bandwidth (i.e., 75%-6 dB fractional bandwidth). Similarly, a hydrophone with wide flat bandwidth from 250 kHz to 20 MHz (HGL-1000, Onda Corp., California) was used to collect single line radio-frequency (RF) PA pressure signal. Twenty sets of PA data were collected, in which 19 of them were collected using the linear array transducer, and the other was through the hydrophone, and the average and standard deviation values were calculated. The PA signals acquired at the depth of target were used to form an averaged RF signal, which is further processed to present PA intensity at each optical wavelength; this permitted an accurate correlation with the spectrophotometric measurements. For the imaging setup, one set of data was obtained using the linear array transducer from 9 μM PA-VSD at 800-nm optical wavelength, and the difference between the resting and polarized states was analyzed.

[8] = Spectrophoto/fluorometric characterization of PA-VSD in lipid vesicle suspension (valinomycin/gramicidin); type: physicochemical; details: for fluorescence quenching (fractional change in fluorescence) upon valinomycin polarization: 9 μM concentration, emission 825 nm
Method: as §2, with “This suspension was vortexed for 10 min and sonicated in bath-type sonicator for 60 min, yielding a translucent vesicle suspension.” left out
A combined spectrophoto/fluorometer system (Spectramax i3x, Molecular Devices) was used to measure both fluorescence and absorbance of the PA-VSD with 1, 3, 6, and 9 μM concentrations. For fluorescence, the measurement was conducted for the spectral range from 750 to 850 nm at 10-nm increment, and the absorbance was measured in the range from 600 to 900 nm at 5-nm increments. Note that 720-nm wavelength was used for excitation during spectrofluorometry of the PA-VSD.

[9] = direct cortical application, 100×
[10] = estimated with theoretical model

In the case of CCCN1/C(=C/C=C2\CCCC(/C=C/C3=[N+](CCC)c4ccccc4C3(C)C)=C2Cl)C(C)(C)c2ccccc21.[I-] [IR780, IR780 perchlorate], the “neural activity index (fractional change vs baseline)” value (rat brain motor cortex; control group (VSD+Lexiscan, no PTZ)) is reported as 0.93±0.25, the “neural activity index (fractional change vs baseline)” value (rat brain motor cortex; seizure group (VSD+Lexiscan+PTZ), motor cortex, 790 nm) is reported as 2.40±0.42 and the “course of EEG suppression” value (rat motor cortex [1]; 100×, over the 10-min recording period) is reported as “recovered to baseline”. The “EEG effect of 100× solution” value (rat motor cortex [1]; [9]) was “significant EEG background suppression”, the “rats with significant EEG background suppression” value (rat motor cortex [1]; [9]) was 4/6 and the “effect on baseline EEG” value (rat motor cortex [1]; direct cortical application, lower concentrations, 10-min recordings) was “no effect in altering the baseline EEG; also recorded: remained unaltered”. For the same molecule, the “PTZ evolution of status on EEG” value (rat motor cortex [2]) was “did not alter”, the peak absorbance [3] was 790 nm and the “absorbance change between polarized and depolarized states” value ([3]; valinomycin and gramicidin) was 3%. The “fluorescence emission change between polarized and depolarized states” value ([3]; valinomycin and gramicidin) was 40.1%, the “PA intensity decrease in depolarization state compared to polarized state (pure VSD contrast)” value [4] was 12.3±6.7% and the “PA intensity decrease in depolarization state compared to polarized state (pure VSD contrast)” value ([4]; listed as VSD) was 12.3% and 12.22%. The “quantum yield in the depolarized state” value [4, 10] was 0.28±0.10, the “quantum yield in the polarized state” value [4, 10] was 0.17±0.06 and the “fractional increase of PA intensity from the natural condition (VSD−, Lexiscan−)” value [5] was 1.09±0.09.
For CNC(=O)c1cnn(-c2nc(N)c3ncn([C@@H]4O[C@H](CO)[C@@H](O)[C@H]4O)c3n2)c1 [Lexiscan, regadenoson], the neural activity index (rat brain motor cortex; negative control group without VSD, Lexiscan+/PTZ−) is listed as 0.92±0.23 and the biological half-life [6] is listed as 2-4 min and 2-3 min.
In the case of CCN1/C(=C/C=C/C=C/C=C/C2=[N+](CC)c3ccc4ccccc4c3C2(C)C)C(C)(C)c2c1ccc1ccccc21.[I-] [PAVSD800-2], the “fractional PA intensity change upon polarization” value ([7]; 1 μM) is reported as 17%, the “fractional PA intensity change upon polarization” value ([7]; 3 μM) is reported as 24% and the “fractional PA intensity change upon polarization” value ([7]; 6 μM) is reported as 17%. The “PA intensity increase in the polarized state” value ([7]; 6 μM, typical experiment) was 14%, the “fractional PA intensity change upon polarization” value ([7]; 9 μM) was 17% and the “fractional change of PA signals” value ([7]; 9 μM, dataset chosen for reconstructed PA images) was 22.72%. For the same molecule, the “fluorescence quenching (fractional change in fluorescence) upon valinomycin polarization” value [8] was “up to 49%”, the “fluorescence quenching (fractional change in fluorescence) upon valinomycin polarization” value ([8]; listed as PA-VSD) was 49% and the fluorescence emission ([8]; in the presence of lipid membranes) was 828 nm.
